Measured values reported in PubChem BioAssay (NCI).
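1) Cells in 96-well plates. 2) Compound, 48 h, 5 concentrations. 3) Linear interpolation between surrounding doses. 4) Unreached endpoint = highest concentration. Abbreviation: GI50, concentration required for 50% inhibition of growth. TGI is the concentration that stops growth completely.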

How the values were obtained:
Test in all cases: NCI anticancer screen, dose series, 48 h
IGROV1 ovarian = system: IGROV1 ovarian
HT29 colon = system: HT29 colon
NCI-H522 lung = system: NCI-H522 lung
SNB-75 CNS = system: SNB-75 CNS
UACC-62 melanoma = system: UACC-62 melanoma
HOP-92 NSCLC = system: HOP-92 NSCLC
NCI-H23 lung = system: NCI-H23 lung
SR leukemia = system: SR leukemia
786-0 renal = system: 786-0 renal
HOP-62 NSCLC = system: HOP-62 NSCLC
NCI/ADR-RES ovarian = system: NCI/ADR-RES ovarian
SN12C renal = system: SN12C renal
UO-31 renal = system: UO-31 renal
RPMI-8226 leukemia = system: RPMI-8226 leukemia
MDA-MB-435 = system: MDA-MB-435
SNB-19 CNS = system: SNB-19 CNS
TK-10 renal = system: TK-10 renal
K-562 leukemia = system: K-562 leukemia
SK-MEL-28 melanoma = system: SK-MEL-28 melanoma
OVCAR-4 ovarian = system: OVCAR-4 ovarian
NCI-H460 lung = system: NCI-H460 lung
HCT-15 colon = system: HCT-15 colon
A549 NSCLC = system: A549 NSCLC
KM12 colon = system: KM12 colon
NCI-H226 lung = system: NCI-H226 lung
CAKI-1 renal = system: CAKI-1 renal
BT-549 breast = system: BT-549 breast
HCC-2998 colon = system: HCC-2998 colon
OVCAR-8 ovarian = system: OVCAR-8 ovarian
M14 melanoma = system: M14 melanoma
MOLT-4 leukemia = system: MOLT-4 leukemia
SK-MEL-5 melanoma = system: SK-MEL-5 melanoma
ACHN renal = system: ACHN renal
HL-60(TB) leukemia = system: HL-60(TB) leukemia
LOX IMVI melanoma = system: LOX IMVI melanoma
SK-MEL-2 melanoma = system: SK-MEL-2 melanoma
SW-620 colon = system: SW-620 colon
MCF7 breast = system: MCF7 breast
RXF 393 renal = system: RXF 393 renal
SF-295 CNS = system: SF-295 CNS
HS 578T breast = system: HS 578T breast
PC-3 prostate = system: PC-3 prostate
SK-OV-3 ovarian = system: SK-OV-3 ovarian
U251 CNS = system: U251 CNS
COLO 205 colon = system: COLO 205 colon
OVCAR-3 ovarian = system: OVCAR-3 ovarian
OVCAR-5 ovarian = system: OVCAR-5 ovarian
SF-539 CNS = system: SF-539 CNS
MALME-3M melanoma = system: MALME-3M melanoma
SF-268 CNS = system: SF-268 CNS
A498 renal = system: A498 renal
MDA-MB-231 breast = system: MDA-MB-231 breast
CCRF-CEM leukemia = system: CCRF-CEM leukemia
HCT-116 colon = system: HCT-116 colon
UACC-257 melanoma = system: UACC-257 melanoma
EKVX NSCLC = system: EKVX NSCLC
T-47D breast = system: T-47D breast
DU-145 prostate = system: DU-145 prostate

SMILES: CCOC(=O)Nc1ccc2nc(N3CCCCCC3)sc2c1
- GI50 (IGROV1 ovarian): 4.36 µM
- TGI (IGROV1 ovarian): > 100 µM
- GI50 (HT29 colon): 0.44 µM
- TGI (HT29 colon): 9.87 µM
- GI50 (NCI-H522 lung): 1.83 µM
- TGI (NCI-H522 lung): 13.2 µM
- GI50 (SNB-75 CNS): 2.07 µM
- TGI (SNB-75 CNS): > 31.4 µM
- GI50 (UACC-62 melanoma): 1.45 µM
- TGI (UACC-62 melanoma): > 100 µM
- GI50 (HOP-92 NSCLC): 6.15 µM
- TGI (HOP-92 NSCLC): 58.9 µM
- GI50 (NCI-H23 lung): 7.95 µM
- TGI (NCI-H23 lung): > 100 µM
- GI50 (SR leukemia): 0.405 µM
- TGI (SR leukemia): > 100 µM
- GI50 (786-0 renal): 6.86 µM
- TGI (786-0 renal): > 100 µM
- GI50 (HOP-62 NSCLC): 3.75 µM
- TGI (HOP-62 NSCLC): > 100 µM
- GI50 (NCI/ADR-RES ovarian): 1.03 µM
- TGI (NCI/ADR-RES ovarian): > 36.6 µM
- GI50 (SN12C renal): 5.08 µM
- TGI (SN12C renal): > 100 µM
- GI50 (UO-31 renal): 6.17 µM
- TGI (UO-31 renal): 75.1 µM
- GI50 (RPMI-8226 leukemia): 3.33 µM
- TGI (RPMI-8226 leukemia): 26.3 µM
- GI50 (MDA-MB-435): 0.204 µM
- TGI (MDA-MB-435): 0.567 µM
- GI50 (SNB-19 CNS): 2.84 µM
- TGI (SNB-19 CNS): > 100 µM
- GI50 (TK-10 renal): 5.07 µM
- TGI (TK-10 renal): > 91 µM
- GI50 (K-562 leukemia): 0.501 µM
- TGI (K-562 leukemia): > 72.6 µM
- GI50 (SK-MEL-28 melanoma): 7.14 µM
- TGI (SK-MEL-28 melanoma): > 91.7 µM
- GI50 (OVCAR-4 ovarian): 23.7 µM
- TGI (OVCAR-4 ovarian): > 100 µM
- GI50 (NCI-H460 lung): 1.4 µM
- TGI (NCI-H460 lung): > 38.7 µM
- GI50 (HCT-15 colon): 0.84 µM
- TGI (HCT-15 colon): > 46.2 µM
- GI50 (A549 NSCLC): 3.32 µM
- TGI (A549 NSCLC): > 100 µM
- GI50 (KM12 colon): 0.661 µM
- TGI (KM12 colon): > 57.5 µM
- GI50 (NCI-H226 lung): 12.3 µM
- TGI (NCI-H226 lung): > 68 µM
- GI50 (CAKI-1 renal): 2.2 µM
- TGI (CAKI-1 renal): > 59.5 µM
- GI50 (BT-549 breast): 12 µM
- TGI (BT-549 breast): 49.6 µM
- GI50 (HCC-2998 colon): 7.59 µM
- TGI (HCC-2998 colon): 48 µM
- GI50 (OVCAR-8 ovarian): 4.51 µM
- TGI (OVCAR-8 ovarian): > 63.4 µM
- GI50 (M14 melanoma): 0.719 µM
- TGI (M14 melanoma): > 70.4 µM
- GI50 (MOLT-4 leukemia): 3.47 µM
- TGI (MOLT-4 leukemia): > 92.9 µM
- GI50 (SK-MEL-5 melanoma): 1.04 µM
- TGI (SK-MEL-5 melanoma): 15.9 µM
- GI50 (ACHN renal): 9.6 µM
- TGI (ACHN renal): > 74.1 µM
- GI50 (HL-60(TB) leukemia): 0.436 µM
- TGI (HL-60(TB) leukemia): 21 µM
- GI50 (LOX IMVI melanoma): 2.16 µM
- TGI (LOX IMVI melanoma): > 100 µM
- GI50 (SK-MEL-2 melanoma): 2.67 µM
- TGI (SK-MEL-2 melanoma): > 72.5 µM
- GI50 (SW-620 colon): 0.567 µM
- TGI (SW-620 colon): > 100 µM
- GI50 (MCF7 breast): 0.857 µM
- TGI (MCF7 breast): > 80.6 µM
- GI50 (RXF 393 renal): 1.99 µM
- TGI (RXF 393 renal): > 26.2 µM
- GI50 (SF-295 CNS): 0.856 µM
- TGI (SF-295 CNS): 11.4 µM
- GI50 (HS 578T breast): 4.53 µM
- TGI (HS 578T breast): > 100 µM
- GI50 (PC-3 prostate): 3.49 µM
- TGI (PC-3 prostate): > 100 µM
- GI50 (SK-OV-3 ovarian): 2.36 µM
- TGI (SK-OV-3 ovarian): > 72.8 µM
- GI50 (U251 CNS): 1.09 µM
- TGI (U251 CNS): > 100 µM
- GI50 (COLO 205 colon): 1.35 µM
- TGI (COLO 205 colon): > 59 µM
- GI50 (OVCAR-3 ovarian): 1.66 µM
- TGI (OVCAR-3 ovarian): 10.7 µM
- GI50 (OVCAR-5 ovarian): 8.28 µM
- TGI (OVCAR-5 ovarian): > 100 µM
- GI50 (SF-539 CNS): 1.59 µM
- TGI (SF-539 CNS): > 27.4 µM
- GI50 (MALME-3M melanoma): 1.35 µM
- TGI (MALME-3M melanoma): 55.7 µM
- GI50 (SF-268 CNS): 8.25 µM
- TGI (SF-268 CNS): > 100 µM
- GI50 (A498 renal): 2.1 µM
- TGI (A498 renal): 32.2 µM
- GI50 (MDA-MB-231 breast): 3.19 µM
- TGI (MDA-MB-231 breast): > 56.8 µM
- GI50 (CCRF-CEM leukemia): 1.97 µM
- TGI (CCRF-CEM leukemia): > 100 µM
- GI50 (HCT-116 colon): 0.573 µM
- TGI (HCT-116 colon): > 77.9 µM
- GI50 (UACC-257 melanoma): 15.2 µM
- TGI (UACC-257 melanoma): 97.2 µM
- GI50 (EKVX NSCLC): 5.14 µM
- TGI (EKVX NSCLC): > 100 µM
- GI50 (T-47D breast): 4.7 µM
- TGI (T-47D breast): > 84.3 µM
- GI50 (DU-145 prostate): 4 µM
- TGI (DU-145 prostate): > 83.3 µM
